Series [1] can be described thus: Human liver microsome assay. Format: in vitro ADME. Particulars: 1 uM substrate, 0.5 mg/mL liver microsome, 2 mM NADPH, 37° C., referenced against time zero control. The method in brief: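 Pooled human liver microsomes (0.5 mg/mL) with 1 uM substrate (0.2% DMSO), 2 mM NADPH, 0.1 M phosphate, shaken 30 min at 37° C. Quenched with cold acetonitrile; parent quantified by LC/MS/MS. Value is % substrate remaining at 30 min versus a time-zero control without NADPH.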
(Liver microsomes are a subcellular fraction often used to study metabolism.)

Series [2] concerns the target human Nav1.8 (Homo sapiens (Human), UniProt Q9Y5Y9). Description: E-VIPR optical membrane potential assay with electrical stimulation. Format: cell-based. Particulars: HEK cells expressing human Nav1.8. The procedure, abridged:
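HEK cells expressing human Nav1.8 were loaded with CC2-DMPE (8 μM) and DiSBAC6(3) (2.5 μM), then given compound for 20-35 min at room temperature (0.625% DMSO). Cells received a 10-s current-controlled electrical stimulus. Response was the stimulated/baseline 460/580 nm emission ratio (Rf/Ri), with tetracaine (125 μM) as positive control.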

Chain of human Nav1.8 (Q9Y5Y9 whole entry): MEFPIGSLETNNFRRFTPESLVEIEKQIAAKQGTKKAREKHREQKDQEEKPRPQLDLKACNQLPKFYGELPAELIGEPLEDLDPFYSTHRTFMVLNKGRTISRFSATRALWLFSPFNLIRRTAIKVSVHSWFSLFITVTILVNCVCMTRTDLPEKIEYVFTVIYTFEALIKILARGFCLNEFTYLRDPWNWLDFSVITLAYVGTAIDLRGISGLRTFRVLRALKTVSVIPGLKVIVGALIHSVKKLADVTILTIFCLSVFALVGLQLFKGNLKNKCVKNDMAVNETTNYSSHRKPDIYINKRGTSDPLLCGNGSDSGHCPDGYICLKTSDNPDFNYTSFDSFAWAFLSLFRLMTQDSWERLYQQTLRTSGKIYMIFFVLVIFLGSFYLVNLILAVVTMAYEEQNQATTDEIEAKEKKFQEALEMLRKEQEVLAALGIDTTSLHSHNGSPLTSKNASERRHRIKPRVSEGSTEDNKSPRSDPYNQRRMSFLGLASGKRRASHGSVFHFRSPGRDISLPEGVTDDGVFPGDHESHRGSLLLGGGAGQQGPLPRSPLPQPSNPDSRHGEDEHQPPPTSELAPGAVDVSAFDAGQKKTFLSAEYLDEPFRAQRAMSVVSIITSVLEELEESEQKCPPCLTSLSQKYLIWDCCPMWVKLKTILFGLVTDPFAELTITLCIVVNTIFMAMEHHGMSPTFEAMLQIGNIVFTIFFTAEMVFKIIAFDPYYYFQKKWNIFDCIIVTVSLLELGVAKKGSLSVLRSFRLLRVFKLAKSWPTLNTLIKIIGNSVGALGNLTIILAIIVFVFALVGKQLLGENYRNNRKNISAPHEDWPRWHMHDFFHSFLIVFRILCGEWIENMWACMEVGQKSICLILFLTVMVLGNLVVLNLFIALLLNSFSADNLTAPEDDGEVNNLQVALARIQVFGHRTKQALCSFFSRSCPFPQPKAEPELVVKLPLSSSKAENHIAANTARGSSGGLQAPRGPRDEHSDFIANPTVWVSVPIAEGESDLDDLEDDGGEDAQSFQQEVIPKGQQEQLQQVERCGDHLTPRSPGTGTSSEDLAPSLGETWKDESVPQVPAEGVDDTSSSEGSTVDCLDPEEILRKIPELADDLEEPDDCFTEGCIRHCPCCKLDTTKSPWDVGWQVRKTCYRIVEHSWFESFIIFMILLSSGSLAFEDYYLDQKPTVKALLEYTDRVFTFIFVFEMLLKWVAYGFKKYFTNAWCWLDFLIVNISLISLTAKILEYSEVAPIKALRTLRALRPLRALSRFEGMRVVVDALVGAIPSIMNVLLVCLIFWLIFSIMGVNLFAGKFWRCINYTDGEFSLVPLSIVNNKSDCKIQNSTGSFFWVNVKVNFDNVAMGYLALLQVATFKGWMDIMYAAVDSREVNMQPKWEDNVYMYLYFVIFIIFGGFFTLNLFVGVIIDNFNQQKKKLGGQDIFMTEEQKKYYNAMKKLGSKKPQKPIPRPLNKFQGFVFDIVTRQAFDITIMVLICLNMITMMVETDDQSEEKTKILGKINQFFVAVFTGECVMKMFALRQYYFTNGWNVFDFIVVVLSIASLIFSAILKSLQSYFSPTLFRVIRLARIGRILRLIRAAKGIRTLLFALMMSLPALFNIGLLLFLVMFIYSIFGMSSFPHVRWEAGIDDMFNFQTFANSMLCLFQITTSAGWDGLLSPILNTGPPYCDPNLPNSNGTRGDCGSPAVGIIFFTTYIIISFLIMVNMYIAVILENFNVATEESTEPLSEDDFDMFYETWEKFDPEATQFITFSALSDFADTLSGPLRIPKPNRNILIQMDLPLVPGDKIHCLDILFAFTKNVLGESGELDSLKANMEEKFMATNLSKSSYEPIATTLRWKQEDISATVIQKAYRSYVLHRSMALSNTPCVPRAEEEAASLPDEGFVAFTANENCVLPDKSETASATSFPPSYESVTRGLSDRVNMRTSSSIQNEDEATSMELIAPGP

In general, IC50 refers to the concentration that gives 50% inhibition. Read a high IC50 as weaker potency. With `NS(=O)(=O)c1cccc(NC(=O)c2c(Oc3ccccc3Cl)cccc2C(F)(F)F)c1` [Compound 74, 2-(2-chlorophenoxy)-N-(3-sulfamoylphenyl)-6-(trifluoromethyl)benzamide], the “HLM: percent unchanged after 30 min” value in series [1] is recorded as 102%. In series [2], the IC50 is 15 nM.

Consider `COc1ccc(Oc2cccc(C(F)(F)F)c2C(=O)Nc2cccc(S(N)(=O)=O)c2)c(Cl)c1` [Compound 75, 2-(2-chloro-4-methoxyphenoxy)-N-(3-sulfamoylphenyl)-6-(trifluoromethyl)benzamide], for which, in series [1], the “HLM: percent unchanged after 30 min” value came to 62%. This molecule had an IC50 in series [2] of 5 nM.

For `COc1cc(F)ccc1Oc1cc(Cl)c(Cl)cc1C(=O)Nc1cccc(S(N)(=O)=O)c1` [Compound 77, 4,5-dichloro-2-(4-fluoro-2-methoxyphenoxy)-N-(3-sulfamoylphenyl)benzamide], in series [1], the “HLM: percent unchanged after 30 min” value turned out to be 95%. Moreover, half-maximal inhibition in series [2] (IC50) required 1 nM.

In the case of `NS(=O)(=O)c1cccc(NC(=O)c2cc(Cl)c(Cl)cc2Oc2ccc(F)cc2)c1` [Compound 78, 4,5-dichloro-2-(4-fluorophenoxy)-N-(3-sulfamoylphenyl)benzamide], the “HLM: percent unchanged after 30 min” value in series [1] is on record as 104%. The IC50 in series [2] came to 8 nM.

For `COc1ccc(Oc2cc(Cl)c(Cl)cc2C(=O)Nc2cccc(S(N)(=O)=O)c2)cc1F` [Compound 79, 4,5-dichloro-2-(3-fluoro-4-methoxyphenoxy)-N-(3-sulfamoylphenyl)benzamide], the “HLM: percent unchanged after 30 min” value in series [1] is recorded as 91%. Besides, the IC50 in series [2] is 4 nM.

Consider `COc1cc(Cl)ccc1Oc1cc(Cl)c(Cl)cc1C(=O)Nc1cccc(S(N)(=O)=O)c1` [Compound 80, 4,5-dichloro-2-(4-chloro-2-methoxyphenoxy)-N-(3-sulfamoylphenyl)benzamide], for which the “HLM: percent unchanged after 30 min” value in series [1] is listed as 108%. The molecule also showed an IC50 in series [2] of 4 nM.

`COc1ccc(Oc2cc(Cl)c(Cl)cc2C(=O)Nc2cccc(S(N)(=O)=O)c2)c(F)c1` [Compound 81, 4,5-dichloro-2-(2-fluoro-4-methoxyphenoxy)-N-(3-sulfamoylphenyl)benzamide]: the “HLM: percent unchanged after 30 min” value in series [1] was determined as 88%. Moreover, the IC50 in series [2] was 8 nM.

Turning to `COc1ccc(Oc2cc(Cl)c(Cl)cc2C(=O)Nc2cccc(S(N)(=O)=O)c2)c(Cl)c1` [Compound 82, 4,5-dichloro-2-(2-chloro-4-methoxyphenoxy)-N-(3-sulfamoylphenyl)benzamide], in series [1], the “HLM: percent unchanged after 30 min” value turned out to be 77%. This molecule also returned an IC50 in series [2] of 6 nM.

Consider `Cc1cc(F)ccc1Oc1cc(Cl)c(Cl)cc1C(=O)Nc1cccc(S(N)(=O)=O)c1` [Compound 83, 4,5-dichloro-2-(4-fluoro-2-methylphenoxy)-N-(3-sulfamoylphenyl)benzamide], for which, in series [1], the “HLM: percent unchanged after 30 min” value is listed as 93%. For the same molecule, the IC50 in series [2] came out at 5 nM.

`COc1ccc(Oc2cc(Cl)ccc2C(=O)Nc2cccc(S(N)(=O)=O)c2)c(OC)c1` [Compound 84, 4-chloro-2-(2,4-dimethoxyphenoxy)-N-(3-sulfamoylphenyl)benzamide]: the “HLM: percent unchanged after 30 min” value in series [1] was found to be 82%. This molecule also returned an IC50 in series [2] of 13 nM.

Turning to `COc1ccc(Oc2cc(Cl)ccc2C(=O)Nc2cccc(S(N)(=O)=O)c2)c(Cl)c1` [Compound 86, 4-chloro-2-(2-chloro-4-methoxyphenoxy)-N-(3-sulfamoylphenyl)benzamide], in series [1], the “HLM: percent unchanged after 30 min” value is given as 82%. This molecule also came in with an IC50 in series [2] of 15 nM.

With `NS(=O)(=O)c1cccc(NC(=O)c2c(Oc3ccc(F)cc3)cc(C(F)(F)F)cc2C(F)(F)F)c1` [Compound 88, 2-(4-fluorophenoxy)-N-(3-sulfamoylphenyl)-4,6-bis(trifluoromethyl)benzamide], the “HLM: percent unchanged after 30 min” value in series [1] is recorded as 105%. The IC50 in series [2] came out at 7 nM.

In the case of `COc1cc(F)ccc1Oc1cc(C(F)(F)F)cc(C(F)(F)F)c1C(=O)Nc1cccc(S(N)(=O)=O)c1` [Compound 89, 2-(4-fluoro-2-methoxyphenoxy)-N-(3-sulfamoylphenyl)-4,6-bis(trifluoromethyl)benzamide], in series [1], the “HLM: percent unchanged after 30 min” value is 87%. For the same molecule, in series [2], the IC50 amounted to 1 nM.

In the case of `COc1ccc(Oc2cc(C(F)(F)F)cc(C(F)(F)F)c2C(=O)Nc2cccc(S(N)(=O)=O)c2)cc1F` [Compound 90, 2-(3-fluoro-4-methoxyphenoxy)-N-(3-sulfamoylphenyl)-4,6-bis(trifluoromethyl)benzamide], the “HLM: percent unchanged after 30 min” value in series [1] was found to be 92%. Moreover, in series [2], the IC50 amounted to 7 nM.

As to `COc1ccc(Oc2cc(C(F)(F)F)cc(C(F)(F)F)c2C(=O)Nc2cccc(S(N)(=O)=O)c2)c(F)c1` [Compound 91, 2-(2-fluoro-4-methoxyphenoxy)-N-(3-sulfamoylphenyl)-4,6-bis(trifluoromethyl)benzamide], in series [1], the “HLM: percent unchanged after 30 min” value is reported as 69%. Moreover, the IC50 in series [2] worked out at 7 nM.

On to `COc1ccc(F)cc1Oc1cc(C(F)(F)F)cc(C(F)(F)F)c1C(=O)Nc1cccc(S(N)(=O)=O)c1` [Compound 92, 2-(5-fluoro-2-methoxyphenoxy)-N-(3-sulfamoylphenyl)-4,6-bis(trifluoromethyl)benzamide], for which the “HLM: percent unchanged after 30 min” value in series [1] is 113%. In series [2], this molecule displayed an IC50 of 16 nM.

With `Cc1cc(F)ccc1Oc1cc(C(F)(F)F)cc(C(F)(F)F)c1C(=O)Nc1cccc(S(N)(=O)=O)c1` [Compound 93, 2-(4-fluoro-2-methylphenoxy)-N-(3-sulfamoylphenyl)-4,6-bis(trifluoromethyl)benzamide], the “HLM: percent unchanged after 30 min” value in series [1] was 96%. The molecule further registered an IC50 in series [2] of 2 nM.

For the molecule `NS(=O)(=O)c1cccc(NC(=O)c2c(Cl)cc(Cl)cc2Oc2ccc(F)cc2)c1` [Compound 94, 2,4-dichloro-6-(4-fluorophenoxy)-N-(3-sulfamoylphenyl)benzamide], the “HLM: percent unchanged after 30 min” value in series [1] came out at 97%. In series [2], this molecule gave an IC50 of 5 nM.

As to `COc1cc(F)ccc1Oc1cc(Cl)cc(Cl)c1C(=O)Nc1cccc(S(N)(=O)=O)c1` [Compound 95, 2,4-dichloro-6-(4-fluoro-2-methoxyphenoxy)-N-(3-sulfamoylphenyl)benzamide], the “HLM: percent unchanged after 30 min” value in series [1] stood at 91%. The molecule also came in with an IC50 in series [2] of 0.9 nM.

Take `Cc1cc(F)ccc1Oc1cc(Cl)cc(Cl)c1C(=O)Nc1cccc(S(N)(=O)=O)c1` [Compound 96, 2,4-dichloro-6-(4-fluoro-2-methylphenoxy)-N-(3-sulfamoylphenyl)benzamide]: the “HLM: percent unchanged after 30 min” value in series [1] was 96%. The midpoint of inhibition in series [2], the IC50, lay at 1 nM.

For the molecule `NS(=O)(=O)c1cccc(NC(=O)c2c(Cl)cc(Cl)cc2Oc2ccc(OC(F)(F)F)cc2)c1` [Compound 97, 2,4-dichloro-N-(3-sulfamoylphenyl)-6-(4-(trifluoromethoxy)phenoxy)benzamide], the “HLM: percent unchanged after 30 min” value in series [1] came to 102%. In series [2], this molecule registered an IC50 of 4 nM.

For the molecule `COc1cc(Cl)ccc1Oc1cc(Cl)cc(Cl)c1C(=O)Nc1cccc(S(N)(=O)=O)c1` [Compound 98, 2,4-dichloro-6-(4-chloro-2-methoxyphenoxy)-N-(3-sulfamoylphenyl)benzamide], the “HLM: percent unchanged after 30 min” value in series [1] is 62%. This molecule displayed a half-inhibitory concentration (IC50) in series [2] of 0.8 nM.

Take `COc1ccc(Oc2cc(Cl)cc(Cl)c2C(=O)Nc2cccc(S(N)(=O)=O)c2)c(F)c1` [Compound 99, 2,4-dichloro-6-(2-fluoro-4-methoxyphenoxy)-N-(3-sulfamoylphenyl)benzamide]: in series [1], the “HLM: percent unchanged after 30 min” value came to 63%. This molecule also showed an IC50 in series [2] of 5 nM.

Source of the values: patent US11203571B2, “Sulfonamides as modulators of sodium channels” (VERTEX PHARMACEUTICALS INCORPORATED, priority 2013, dated 2021).
